The target of series [1] is T1, Nav1.7 (Homo sapiens, UniProt Q15858).
T1 construct: expressed in transfected cells
In words: Inhibition of Nav1.7 channel current in CHO cells stably expressing Nav1.7. Type of series: cell-based. The following applies: CHO cells stably expressing Nav1.7, channel current.

In series [2] the target is T2, Nav1.8 (Homo sapiens, UniProt Q9Y5Y9).
T2 construct: expressed in transfected cells
In words: Inhibition of Nav1.8 channel current in HEK cells stably expressing Nav1.8. Format: cell-based. The following applies: HEK cells stably expressing Nav1.8, channel current.

The subject of series [3] is rat dorsal root ganglion (DRG) neurons. In words: Patch clamp inhibition of action potential of acutely isolated rat DRG neurons. The following applies: DRG neuron. Type of series: cell-based. An excerpt:
In addition, the inventor used acutely isolated rat dorsal root ganglion (DRG) neurons as the experimental object, using patch clamp technology to investigate the inhibition effect of the compound represented by Formula 1 of the present invention on the neuronal excitability of the dorsal root ganglion.

Series [4] is described as follows: Physical and chemical properties (repose angle, solubility, acidity, dissociation constant). Type of series: physicochemical.
Series [5] can be described thus: Stability of aqueous solution at 2-8° C. (HPLC). The following applies: for Main Drug, %: aqueous solution 5 g in 50 mL sterile water; for Main Drug, % / Salicylic acid, % (impurity) / Salicylic acid-(2-diethylaminoethyl ester) hydrochloride, % (impurity) / Acetylsalicylic acid, % (impurity): 2-8° C.; for Salicylic acid, % (impurity) / Salicylic acid-(2-diethylaminoethyl ester) hydrochloride, % (impurity) / Acetylsalicylic acid, % (impurity): aqueous solution. Type of series: physicochemical.

Series [6] has as its system corneal reflex in rabbits. Nature of the series: Anesthetic effect on the corneal surface of New Zealand rabbits (corneal reflex inhibition, CRI). Format: in vivo, New Zealand white rabbits. The protocol:
New Zealand white rabbits were weighed. […] A single administration of 3 mg/animal (100 μL) was performed on the surface of the eyeball, and the drug concentration was 3% (m/V) in each case (wherein a Tris solution was added to aspirin to facilitate dissolution). Each group included 12 rabbits. […] An equal volume of normal saline was dropped onto the right eyeball as the self-negative control. […] After 30 minutes of administration, it was tested every 15 minutes. After the corneal reflex returned to the pre-dose level, the test was stopped. By comparing the corneal reflex on the administration side and the self-negative control side, the effect of the compound on the corneal reflex after administration was judged. Corneal reflex inhibition (CRI) was used to evaluate the effect of drugs on corneal reflex. CRI was calculated as follows: […]

For series [7], the target named is T1, Nav1.7. The following applies: reported by a literature; cited from earlier work.
Series [8] addresses T2, Nav1.8. The following applies: reported by a literature; cited from earlier work.
Where [9] appears, read: 3% (m/V), 100 μL on left eyeball, 0 min, mean ± SD.
Where [10] appears, read: 3% (m/V), 100 μL on left eyeball, 10 min after administration, mean ± SD.
Where [11] appears, read: 3% (m/V), 100 μL on left eyeball, 15 min after administration, mean ± SD.
The mark [12] stands for this setting: 3% (m/V), 100 μL on left eyeball, 20 min after administration, mean ± SD.
Setting [13] is: 3% (m/V), 100 μL on left eyeball, 25 min after administration, mean ± SD.
The mark [14] stands for this setting: 3% (m/V), 100 μL on left eyeball, 30 min after administration, mean ± SD.
Where [15] appears, read: 3% (m/V), 100 μL on left eyeball, 45 min after administration, mean ± SD.
[16] abbreviates: 3% (m/V), 100 μL on left eyeball, 60 min after administration, mean ± SD.
The mark [17] stands for this setting: ophthalmic administration, 3% (m/V), rabbits.
The mark [18] stands for this setting: 3% (m/V), 100 μL on left eyeball, 5 min after administration, mean ± SD.

Molecules are shown by their SMILES. Where “and” joins values, the source holds several entries; their conditions need not be identical. Identical values can stand only once. Like-named read-outs stand apart in the source and are kept apart here.

T2 sequence (Q9Y5Y9 whole entry): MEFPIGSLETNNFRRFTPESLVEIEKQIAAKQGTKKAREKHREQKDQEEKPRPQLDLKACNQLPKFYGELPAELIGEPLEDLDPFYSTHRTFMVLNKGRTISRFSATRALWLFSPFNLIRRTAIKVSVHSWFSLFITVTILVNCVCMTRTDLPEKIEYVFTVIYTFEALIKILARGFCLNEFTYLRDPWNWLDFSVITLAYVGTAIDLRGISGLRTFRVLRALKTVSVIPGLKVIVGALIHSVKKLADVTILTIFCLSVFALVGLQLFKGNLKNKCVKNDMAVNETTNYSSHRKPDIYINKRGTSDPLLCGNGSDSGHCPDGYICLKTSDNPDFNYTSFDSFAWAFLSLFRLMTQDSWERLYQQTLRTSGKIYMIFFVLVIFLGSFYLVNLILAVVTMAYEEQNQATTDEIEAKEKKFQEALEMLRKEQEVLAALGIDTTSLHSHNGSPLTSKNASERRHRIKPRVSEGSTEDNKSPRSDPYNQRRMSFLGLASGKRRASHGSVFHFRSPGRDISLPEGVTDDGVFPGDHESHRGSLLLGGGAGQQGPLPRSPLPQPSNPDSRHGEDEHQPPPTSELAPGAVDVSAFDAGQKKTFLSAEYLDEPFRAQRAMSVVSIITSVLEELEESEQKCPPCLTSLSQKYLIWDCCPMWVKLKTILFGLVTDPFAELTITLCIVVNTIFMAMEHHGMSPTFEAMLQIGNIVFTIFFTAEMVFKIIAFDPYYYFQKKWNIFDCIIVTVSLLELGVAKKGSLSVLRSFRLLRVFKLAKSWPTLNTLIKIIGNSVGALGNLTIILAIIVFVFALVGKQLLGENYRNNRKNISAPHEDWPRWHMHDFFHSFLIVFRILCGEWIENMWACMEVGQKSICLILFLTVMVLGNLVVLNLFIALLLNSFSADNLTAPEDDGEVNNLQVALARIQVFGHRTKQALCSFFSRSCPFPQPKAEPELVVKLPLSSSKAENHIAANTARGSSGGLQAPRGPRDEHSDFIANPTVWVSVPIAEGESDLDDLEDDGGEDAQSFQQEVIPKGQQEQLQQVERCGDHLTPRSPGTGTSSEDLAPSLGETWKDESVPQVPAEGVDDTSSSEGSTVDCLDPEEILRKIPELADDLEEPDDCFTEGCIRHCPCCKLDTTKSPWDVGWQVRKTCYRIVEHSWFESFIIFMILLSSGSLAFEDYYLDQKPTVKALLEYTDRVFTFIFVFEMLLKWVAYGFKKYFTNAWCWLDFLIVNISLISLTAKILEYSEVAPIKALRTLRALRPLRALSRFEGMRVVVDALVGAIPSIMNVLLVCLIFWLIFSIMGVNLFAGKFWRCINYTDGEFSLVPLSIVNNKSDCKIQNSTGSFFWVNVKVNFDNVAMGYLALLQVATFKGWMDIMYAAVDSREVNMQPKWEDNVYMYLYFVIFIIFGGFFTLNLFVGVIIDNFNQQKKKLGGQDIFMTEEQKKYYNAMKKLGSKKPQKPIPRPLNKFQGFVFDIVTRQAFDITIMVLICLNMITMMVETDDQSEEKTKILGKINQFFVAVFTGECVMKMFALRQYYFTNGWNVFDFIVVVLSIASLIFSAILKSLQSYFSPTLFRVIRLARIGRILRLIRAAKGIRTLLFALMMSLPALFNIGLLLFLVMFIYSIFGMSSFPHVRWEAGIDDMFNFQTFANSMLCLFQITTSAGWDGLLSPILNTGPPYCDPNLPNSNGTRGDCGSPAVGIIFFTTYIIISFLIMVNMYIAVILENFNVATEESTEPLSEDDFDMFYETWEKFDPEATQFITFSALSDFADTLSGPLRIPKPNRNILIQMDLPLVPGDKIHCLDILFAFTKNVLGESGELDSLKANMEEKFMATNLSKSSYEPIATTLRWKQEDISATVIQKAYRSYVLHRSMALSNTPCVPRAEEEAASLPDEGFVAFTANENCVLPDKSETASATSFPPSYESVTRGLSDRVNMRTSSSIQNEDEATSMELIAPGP
T1 sequence (Q15858 whole entry): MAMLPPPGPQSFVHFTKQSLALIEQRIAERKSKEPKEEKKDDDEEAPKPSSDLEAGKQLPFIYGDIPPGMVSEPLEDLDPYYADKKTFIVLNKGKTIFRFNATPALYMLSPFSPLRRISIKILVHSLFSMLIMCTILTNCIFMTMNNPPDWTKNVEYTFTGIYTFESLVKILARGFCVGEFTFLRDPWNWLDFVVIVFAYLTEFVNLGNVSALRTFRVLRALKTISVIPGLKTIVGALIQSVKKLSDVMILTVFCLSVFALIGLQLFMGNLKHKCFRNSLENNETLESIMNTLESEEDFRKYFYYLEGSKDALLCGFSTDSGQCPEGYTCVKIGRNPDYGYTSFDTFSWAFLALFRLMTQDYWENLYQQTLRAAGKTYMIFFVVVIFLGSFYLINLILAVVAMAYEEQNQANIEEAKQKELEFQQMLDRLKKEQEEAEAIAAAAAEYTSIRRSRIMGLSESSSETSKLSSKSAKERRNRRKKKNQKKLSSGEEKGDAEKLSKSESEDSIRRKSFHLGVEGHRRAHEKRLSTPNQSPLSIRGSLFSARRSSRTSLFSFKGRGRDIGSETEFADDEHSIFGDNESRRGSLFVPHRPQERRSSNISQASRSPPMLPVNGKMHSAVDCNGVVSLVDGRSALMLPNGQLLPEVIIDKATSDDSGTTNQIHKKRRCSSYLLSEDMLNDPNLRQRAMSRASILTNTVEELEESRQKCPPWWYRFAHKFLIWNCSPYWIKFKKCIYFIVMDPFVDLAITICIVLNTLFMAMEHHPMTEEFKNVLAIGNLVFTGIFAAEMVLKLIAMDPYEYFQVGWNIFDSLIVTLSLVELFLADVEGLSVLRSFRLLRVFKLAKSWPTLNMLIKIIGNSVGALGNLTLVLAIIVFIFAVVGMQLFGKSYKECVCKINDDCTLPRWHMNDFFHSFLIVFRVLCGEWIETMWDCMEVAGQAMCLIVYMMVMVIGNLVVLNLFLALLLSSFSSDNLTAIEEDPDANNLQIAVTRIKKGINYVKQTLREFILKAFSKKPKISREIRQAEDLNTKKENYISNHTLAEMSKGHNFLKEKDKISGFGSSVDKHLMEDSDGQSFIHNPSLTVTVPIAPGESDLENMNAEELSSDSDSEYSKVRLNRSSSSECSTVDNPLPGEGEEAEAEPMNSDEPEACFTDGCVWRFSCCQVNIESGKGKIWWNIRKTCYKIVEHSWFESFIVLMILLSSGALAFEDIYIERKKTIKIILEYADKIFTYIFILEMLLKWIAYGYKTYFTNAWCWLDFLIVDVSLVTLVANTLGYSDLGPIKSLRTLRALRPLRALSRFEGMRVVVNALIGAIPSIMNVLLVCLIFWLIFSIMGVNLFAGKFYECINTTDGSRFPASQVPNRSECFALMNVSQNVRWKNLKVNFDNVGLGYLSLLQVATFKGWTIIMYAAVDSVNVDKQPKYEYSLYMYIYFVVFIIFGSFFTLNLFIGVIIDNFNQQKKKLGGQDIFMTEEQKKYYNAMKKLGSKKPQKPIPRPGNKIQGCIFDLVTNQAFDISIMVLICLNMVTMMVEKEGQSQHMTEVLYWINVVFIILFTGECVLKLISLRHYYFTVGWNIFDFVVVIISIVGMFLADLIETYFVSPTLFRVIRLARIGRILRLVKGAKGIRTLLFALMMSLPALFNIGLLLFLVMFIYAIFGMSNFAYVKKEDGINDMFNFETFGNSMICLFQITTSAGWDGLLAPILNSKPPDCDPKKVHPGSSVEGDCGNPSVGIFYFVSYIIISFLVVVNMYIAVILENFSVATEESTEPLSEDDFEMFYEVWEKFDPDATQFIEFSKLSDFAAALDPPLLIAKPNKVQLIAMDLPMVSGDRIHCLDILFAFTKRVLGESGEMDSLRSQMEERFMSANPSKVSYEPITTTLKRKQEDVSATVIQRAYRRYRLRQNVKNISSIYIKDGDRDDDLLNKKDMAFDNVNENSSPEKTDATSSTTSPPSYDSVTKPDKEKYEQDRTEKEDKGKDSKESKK

The term IC50 denotes the point on the concentration scale where inhibition reaches its midpoint. Regarding `CCN(CC)CCOC(=O)c1ccccc1OC(C)=O.Cl` [2-(diethylamino)-ethyl-2-acetoxybenzoate hydrochloride], the IC50 on Nav1.7 [1] was determined as 17.7 µM; against Nav1.8 [2] it was 74.6 µM; in series [3], 34.6 µM. This compound gave a Dissociation constant in series [4] of 8.82. Also, in series [4], the Repose angle was 42°. Moreover, the “Acidity: pH value of the 2% aqueous solution” value in series [4] (2% aqueous solution at 25 ± 0.5° C.) was “product at 25 ± 0.5 °C is 4.0-6.0”. The Solubility in acetone result in series [4] (acetone) is “slightly soluble”. Further, in series [4] (ether), the Solubility in ether entry is reported as “insoluble”. For the same compound, the “Solubility in ethyl acetate” value in series [4] (ethyl acetate) is “insoluble”. The Solubility in water result in series [4] (water) is “extremely soluble”. The “Main Drug, %” value in series [5] (month 0) was 99.48%; in series [5] (month 0.5), 99.32%; in series [5] (month 1) it was 97.59%; in series [5] (month 2) it was 94.86%; in series [5] (month 3, hydrochloride), 86% and 86.55%. In addition, the “Salicylic acid, % (impurity)” value in series [5] (month 0) was determined as 0.0028%; in series [5] (month 0.5) it was 0.0035%; in series [5] (month 1) it was 0.0044%; in series [5] (month 2), 0.012%; in series [5] (month 3) it was 0.049%. Also, the “Salicylic acid-(2-diethylaminoethyl ester) hydrochloride, % (impurity)” value was 0.51% in series [5] (month 0), 0.67% in series [5] (month 0.5), 2.38% in series [5] (month 1) and 5.09% in series [5] (month 2). The “Acetylsalicylic acid, % (impurity)” value is 0.018% in series [5] (month 1), 0.033% in series [5] (month 2) and 0.042% in series [5] (month 3). In addition, in series [5] (solution state), the “stability in solution (in words)” value was “did not meet the general requirements for chemical drug stability”. The “CRI (%)” value turned out to be 0.0 ± 0.0% in series [6] (setting [9]); 99.1 ± 2.0% in series [6] (3% (m/V), 100 μL on left eyeball, 5 min after administration; mean ± SD; hydrochloride)); 97.2 ± 2.9% in series [6] (setting [10]); 96.7 ± 6.5% in series [6] (setting [11]); 86.7 ± 9.8% in series [6] (setting [12]); 77.5 ± 2.9% in series [6] (setting [13]). Also, the “CRI (%)” value was found to be 57.5 ± 12.2% in series [6] (setting [14]), 12.2 ± 12.4% in series [6] (setting [15]) and 0.0 ± 0.0% in series [6] (setting [16]). Moreover, the “local anesthetic effect (in words)” value in series [6] (setting [17]) is “had a local anesthesia effect for ophthalmic administration, with quick onset”.

For the compound `CC(=O)Oc1ccccc1C(=O)O` [Aspirin, aspirin], the “CRI (%)” value in series [6] (setting [9]), in series [6] (setting [18]), in series [6] (setting [10]), in series [6] (setting [11]), in series [6] (setting [12]) and in series [6] (setting [13]) was 0.0 ± 0.0% each time. Further, the “CRI (%)” value in series [6] (setting [14]) is listed as 0.0 ± 0.0%; in series [6] (setting [15]), 0.0 ± 0.0%; in series [6] (setting [16]), 0.0 ± 0.0%; in series [6] (no time point stated), 0.0±0.0%. In addition, the “local anesthetic effect (in words)” value in series [6] (setting [17]) is “no local anesthetic effect at all”.

Consider `CCN(CC)CC(=O)Nc1c(C)cccc1C` [Lidocaine, lidocaine], for which the results for the IC50 (in series [3]; on Nav1.7 [7]; on Nav1.8 [8]) were 37.1 µM, 450 µM and 104 µM, respectively. Further, the “CRI (%)” value in series [6] (setting [9]) was 0.0 ± 0.0%; in series [6] (setting [18]), 98.3 ± 3.9%; in series [6] (setting [10]), 95.0 ± 10.0%; in series [6] (setting [11]) it was 91.7 ± 15.3%; in series [6] (setting [12]) it was 86.7 ± 21.0%; in series [6] (setting [13]) it was 82.5 ± 27.3%. Also, the “CRI (%)” value is on record as 70.0 ± 27.3% in series [6] (setting [14]), 32.5 ± 30.5% in series [6] (setting [15]) and 0.0 ± 0.0% in series [6] (setting [16]).

Regarding `O=C([O-])c1ccccc1O.[Na+]` [Sodium salicylate, sodium salicylate], in series [6] (rabbit, in vivo), the “CRI (%)” value was determined as 0.0±0.0% and the “local anesthetic effect (in words)” value was “no local anesthetic effect at all”.
